Test results reported in the supplement of paper PMC8671470.
Counter-ions that a name gives are not always drawn.

What follows are compounds tested on Mono-Mac-6 (assay: cell viability (% survival relative to DMSO control, bortezomib = 0%); higher = less cytotoxic). Conditions: 1 nM; 72 h.
Summary of the method: (§1)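 Percent survival is reported as the mean of duplicate wells. Cells from 10 AML and 5 CML lines were plated in 384-well plates containing compounds at 1, 10, 100, 1000 or 10000 nM and kept for 72 h at 37 °C in 5% CO2. Readout used CellTiter-Glo luminescence, scaled so that vehicle equals 100% and a 10 µM positive control equals 0%.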

**Q.** For `Fc1ccc(CNc2ncnc3ccc(F)cc23)cc1` [Spautin 1], which cell viability is on record?
**A.** 109%

**Q.** Which cell viability does the source give for `O=C(Oc1cccc(F)c1OC(=O)c1cccc(O)c1)c1cccc(O)c1` [WZB117] here?
**A.** 96.6%

**Q.** With `CC(C)(Cc1ccccc1)NCC(O)c1ccc(O)c(NS(C)(=O)=O)c1` (stereo unspecified) [Zinterol hydrochloride] as the compound, how does the cell viability read?
**A.** 72.2%

Same assay, conditions: 10 nM; 72 h

**Q.** For `Fc1ccc(CNc2ncnc3ccc(F)cc23)cc1` [Spautin 1], which cell viability is on record?
**A.** 96.1%

**Q.** `O=C(Oc1cccc(F)c1OC(=O)c1cccc(O)c1)c1cccc(O)c1` [WZB117] was tested. Which cell viability did it give?
**A.** 104%

**Q.** How did the cell viability turn out when `CC(C)(Cc1ccccc1)NCC(O)c1ccc(O)c(NS(C)(=O)=O)c1` (stereo unspecified) [Zinterol hydrochloride] was run?
**A.** 51.5%

Same assay, conditions: 100 nM; 72 h

**Q.** For `Fc1ccc(CNc2ncnc3ccc(F)cc23)cc1` [Spautin 1], which cell viability is on record?
**A.** 119%

**Q.** `O=C(Oc1cccc(F)c1OC(=O)c1cccc(O)c1)c1cccc(O)c1` [WZB117] was tested. Which cell viability did it give?
**A.** 99.7%

**Q.** How did the cell viability turn out when `CC(C)(Cc1ccccc1)NCC(O)c1ccc(O)c(NS(C)(=O)=O)c1` (stereo unspecified) [Zinterol hydrochloride] was run?
**A.** 49%

Same assay, conditions: 1000 nM; 72 h

**Q.** For `Fc1ccc(CNc2ncnc3ccc(F)cc23)cc1` [Spautin 1], which cell viability is on record?
**A.** 106%

**Q.** For `O=C(Oc1cccc(F)c1OC(=O)c1cccc(O)c1)c1cccc(O)c1` [WZB117], which cell viability is on record?
**A.** 101%

**Q.** Which cell viability does the source give for `CC(C)(Cc1ccccc1)NCC(O)c1ccc(O)c(NS(C)(=O)=O)c1` (stereo unspecified) [Zinterol hydrochloride] here?
**A.** 48.6%

Same assay, conditions: 10000 nM; 72 h

**Q.** For `Fc1ccc(CNc2ncnc3ccc(F)cc23)cc1` [Spautin 1], which cell viability is on record?
**A.** 59%

**Q.** With `O=C(Oc1cccc(F)c1OC(=O)c1cccc(O)c1)c1cccc(O)c1` [WZB117] as the compound, how does the cell viability read?
**A.** 16.9%

**Q.** How did the cell viability turn out when `CC(C)(Cc1ccccc1)NCC(O)c1ccc(O)c(NS(C)(=O)=O)c1` (stereo unspecified) [Zinterol hydrochloride] was run?
**A.** 50.1%

Each compound was assayed on BV-173 in the same assay as above. Conditions: 1 nM; 72 h.
Summary of the method: as §1

**Q.** How did the cell viability turn out when `Fc1ccc(CNc2ncnc3ccc(F)cc23)cc1` [Spautin 1] was run?
**A.** 98.3%

**Q.** With `O=C(Oc1cccc(F)c1OC(=O)c1cccc(O)c1)c1cccc(O)c1` [WZB117] as the compound, how does the cell viability read?
**A.** 96%

**Q.** `CC(C)(Cc1ccccc1)NCC(O)c1ccc(O)c(NS(C)(=O)=O)c1` (stereo unspecified) [Zinterol hydrochloride] was tested. Which cell viability did it give?
**A.** 113%

Same assay, conditions: 10 nM; 72 h

**Q.** Which cell viability does the source give for `Fc1ccc(CNc2ncnc3ccc(F)cc23)cc1` [Spautin 1] here?
**A.** 96.8%

**Q.** For `O=C(Oc1cccc(F)c1OC(=O)c1cccc(O)c1)c1cccc(O)c1` [WZB117], which cell viability is on record?
**A.** 104%

**Q.** Which cell viability does the source give for `CC(C)(Cc1ccccc1)NCC(O)c1ccc(O)c(NS(C)(=O)=O)c1` (stereo unspecified) [Zinterol hydrochloride] here?
**A.** 93.6%

Same assay, conditions: 100 nM; 72 h

**Q.** `Fc1ccc(CNc2ncnc3ccc(F)cc23)cc1` [Spautin 1] was tested. Which cell viability did it give?
**A.** 110%

**Q.** For `O=C(Oc1cccc(F)c1OC(=O)c1cccc(O)c1)c1cccc(O)c1` [WZB117], which cell viability is on record?
**A.** 90.5%

**Q.** Which cell viability does the source give for `CC(C)(Cc1ccccc1)NCC(O)c1ccc(O)c(NS(C)(=O)=O)c1` (stereo unspecified) [Zinterol hydrochloride] here?
**A.** 106%

Same assay, conditions: 1000 nM; 72 h

**Q.** How did the cell viability turn out when `Fc1ccc(CNc2ncnc3ccc(F)cc23)cc1` [Spautin 1] was run?
**A.** 79.7%

**Q.** For `O=C(Oc1cccc(F)c1OC(=O)c1cccc(O)c1)c1cccc(O)c1` [WZB117], which cell viability is on record?
**A.** 98.8%

**Q.** How did the cell viability turn out when `CC(C)(Cc1ccccc1)NCC(O)c1ccc(O)c(NS(C)(=O)=O)c1` (stereo unspecified) [Zinterol hydrochloride] was run?
**A.** 87%

Same assay, conditions: 10000 nM; 72 h

**Q.** For `Fc1ccc(CNc2ncnc3ccc(F)cc23)cc1` [Spautin 1], which cell viability is on record?
**A.** 35.1%

**Q.** For `O=C(Oc1cccc(F)c1OC(=O)c1cccc(O)c1)c1cccc(O)c1` [WZB117], which cell viability is on record?
**A.** 15.4%

**Q.** `CC(C)(Cc1ccccc1)NCC(O)c1ccc(O)c(NS(C)(=O)=O)c1` (stereo unspecified) [Zinterol hydrochloride] was tested. Which cell viability did it give?
**A.** 121%

Each compound was assayed on HEL in the same assay as above. Conditions: 1 nM; 72 h.
Summary of the method: as §1

**Q.** `Fc1ccc(CNc2ncnc3ccc(F)cc23)cc1` [Spautin 1] was tested. Which cell viability did it give?
**A.** 91.3%

**Q.** `O=C(Oc1cccc(F)c1OC(=O)c1cccc(O)c1)c1cccc(O)c1` [WZB117] was tested. Which cell viability did it give?
**A.** 107%

**Q.** How did the cell viability turn out when `CC(C)(Cc1ccccc1)NCC(O)c1ccc(O)c(NS(C)(=O)=O)c1` (stereo unspecified) [Zinterol hydrochloride] was run?
**A.** 77.8%

Same assay, conditions: 10 nM; 72 h

**Q.** For `Fc1ccc(CNc2ncnc3ccc(F)cc23)cc1` [Spautin 1], which cell viability is on record?
**A.** 98.3%

**Q.** With `O=C(Oc1cccc(F)c1OC(=O)c1cccc(O)c1)c1cccc(O)c1` [WZB117] as the compound, how does the cell viability read?
**A.** 110%

**Q.** Which cell viability does the source give for `CC(C)(Cc1ccccc1)NCC(O)c1ccc(O)c(NS(C)(=O)=O)c1` (stereo unspecified) [Zinterol hydrochloride] here?
**A.** 101%

Same assay, conditions: 100 nM; 72 h

**Q.** With `Fc1ccc(CNc2ncnc3ccc(F)cc23)cc1` [Spautin 1] as the compound, how does the cell viability read?
**A.** 94.1%

**Q.** For `O=C(Oc1cccc(F)c1OC(=O)c1cccc(O)c1)c1cccc(O)c1` [WZB117], which cell viability is on record?
**A.** 95.2%

**Q.** Which cell viability does the source give for `CC(C)(Cc1ccccc1)NCC(O)c1ccc(O)c(NS(C)(=O)=O)c1` (stereo unspecified) [Zinterol hydrochloride] here?
**A.** 103%

Same assay, conditions: 1000 nM; 72 h

**Q.** With `Fc1ccc(CNc2ncnc3ccc(F)cc23)cc1` [Spautin 1] as the compound, how does the cell viability read?
**A.** 89.4%

**Q.** How did the cell viability turn out when `O=C(Oc1cccc(F)c1OC(=O)c1cccc(O)c1)c1cccc(O)c1` [WZB117] was run?
**A.** 99.8%

**Q.** With `CC(C)(Cc1ccccc1)NCC(O)c1ccc(O)c(NS(C)(=O)=O)c1` (stereo unspecified) [Zinterol hydrochloride] as the compound, how does the cell viability read?
**A.** 110%

Same assay, conditions: 10000 nM; 72 h

**Q.** Which cell viability does the source give for `Fc1ccc(CNc2ncnc3ccc(F)cc23)cc1` [Spautin 1] here?
**A.** 47.9%

**Q.** For `O=C(Oc1cccc(F)c1OC(=O)c1cccc(O)c1)c1cccc(O)c1` [WZB117], which cell viability is on record?
**A.** 72.7%

**Q.** How did the cell viability turn out when `CC(C)(Cc1ccccc1)NCC(O)c1ccc(O)c(NS(C)(=O)=O)c1` (stereo unspecified) [Zinterol hydrochloride] was run?
**A.** 93.5%

What follows are compounds tested on HL-60 in the same assay as above. Conditions: 1 nM; 72 h.
Summary of the method: as §1

**Q.** `Fc1ccc(CNc2ncnc3ccc(F)cc23)cc1` [Spautin 1] was tested. Which cell viability did it give?
**A.** 105%

**Q.** With `O=C(Oc1cccc(F)c1OC(=O)c1cccc(O)c1)c1cccc(O)c1` [WZB117] as the compound, how does the cell viability read?
**A.** 102%

**Q.** `CC(C)(Cc1ccccc1)NCC(O)c1ccc(O)c(NS(C)(=O)=O)c1` (stereo unspecified) [Zinterol hydrochloride] was tested. Which cell viability did it give?
**A.** 107%

Same assay, conditions: 10 nM; 72 h

**Q.** With `Fc1ccc(CNc2ncnc3ccc(F)cc23)cc1` [Spautin 1] as the compound, how does the cell viability read?
**A.** 102%

**Q.** For `O=C(Oc1cccc(F)c1OC(=O)c1cccc(O)c1)c1cccc(O)c1` [WZB117], which cell viability is on record?
**A.** 98%

**Q.** Which cell viability does the source give for `CC(C)(Cc1ccccc1)NCC(O)c1ccc(O)c(NS(C)(=O)=O)c1` (stereo unspecified) [Zinterol hydrochloride] here?
**A.** 113%

Same assay, conditions: 100 nM; 72 h

**Q.** With `Fc1ccc(CNc2ncnc3ccc(F)cc23)cc1` [Spautin 1] as the compound, how does the cell viability read?
**A.** 110%

**Q.** For `O=C(Oc1cccc(F)c1OC(=O)c1cccc(O)c1)c1cccc(O)c1` [WZB117], which cell viability is on record?
**A.** 93.3%

**Q.** `CC(C)(Cc1ccccc1)NCC(O)c1ccc(O)c(NS(C)(=O)=O)c1` (stereo unspecified) [Zinterol hydrochloride] was tested. Which cell viability did it give?
**A.** 85%

Same assay, conditions: 1000 nM; 72 h

**Q.** `Fc1ccc(CNc2ncnc3ccc(F)cc23)cc1` [Spautin 1] was tested. Which cell viability did it give?
**A.** 117%

**Q.** For `O=C(Oc1cccc(F)c1OC(=O)c1cccc(O)c1)c1cccc(O)c1` [WZB117], which cell viability is on record?
**A.** 104%

**Q.** For `CC(C)(Cc1ccccc1)NCC(O)c1ccc(O)c(NS(C)(=O)=O)c1` (stereo unspecified) [Zinterol hydrochloride], which cell viability is on record?
**A.** 87.7%

Same assay, conditions: 10000 nM; 72 h

**Q.** With `Fc1ccc(CNc2ncnc3ccc(F)cc23)cc1` [Spautin 1] as the compound, how does the cell viability read?
**A.** 47.4%

**Q.** How did the cell viability turn out when `O=C(Oc1cccc(F)c1OC(=O)c1cccc(O)c1)c1cccc(O)c1` [WZB117] was run?
**A.** 48%

**Q.** For `CC(C)(Cc1ccccc1)NCC(O)c1ccc(O)c(NS(C)(=O)=O)c1` (stereo unspecified) [Zinterol hydrochloride], which cell viability is on record?
**A.** 112%

The compounds below were run on myeloid leukemia patient primary cells Pat.5 (assay: cell viability (% survival relative to DMSO control); higher = less cytotoxic). Conditions: 1 nM; 72 h.
Summary of the method: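 Mononuclear cells from patients with AML or CML were thawed, purified on Ficoll and placed in RPMI 1640 with 10% FBS at 10,000 cells/well on 384-well plates. The plates came pre-printed with 70 compounds at five tenfold concentrations spanning 1–10,000 nM, in duplicate, and cells were exposed for 72 h. CellTiter-Glo gave viability, scaled between DMSO wells and wells with 10 μM proteasome inhibitor. Where reported, area under the curve was obtained from log-logistic fits with four parameters using the drc and PharmacoGx R packages.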

**Q.** How did the cell viability turn out when `Fc1ccc(CNc2ncnc3ccc(F)cc23)cc1` [Spautin 1] was run?
**A.** 84.9%

**Q.** How did the cell viability turn out when `O=C(Oc1cccc(F)c1OC(=O)c1cccc(O)c1)c1cccc(O)c1` [WZB117] was run?
**A.** 96.4%

**Q.** `CC(C)(Cc1ccccc1)NCC(O)c1ccc(O)c(NS(C)(=O)=O)c1` (stereo unspecified) [Zinterol hydrochloride] was tested. Which cell viability did it give?
**A.** 17%

Same assay, conditions: 10 nM; 72 h

**Q.** `Fc1ccc(CNc2ncnc3ccc(F)cc23)cc1` [Spautin 1] was tested. Which cell viability did it give?
**A.** 17%

**Q.** With `O=C(Oc1cccc(F)c1OC(=O)c1cccc(O)c1)c1cccc(O)c1` [WZB117] as the compound, how does the cell viability read?
**A.** 23.7%

**Q.** For `CC(C)(Cc1ccccc1)NCC(O)c1ccc(O)c(NS(C)(=O)=O)c1` (stereo unspecified) [Zinterol hydrochloride], which cell viability is on record?
**A.** > 100%

Same assay, conditions: 100 nM; 72 h

**Q.** Which cell viability does the source give for `Fc1ccc(CNc2ncnc3ccc(F)cc23)cc1` [Spautin 1] here?
**A.** 78.9%

**Q.** `O=C(Oc1cccc(F)c1OC(=O)c1cccc(O)c1)c1cccc(O)c1` [WZB117] was tested. Which cell viability did it give?
**A.** 4.78%

**Q.** For `CC(C)(Cc1ccccc1)NCC(O)c1ccc(O)c(NS(C)(=O)=O)c1` (stereo unspecified) [Zinterol hydrochloride], which cell viability is on record?
**A.** 73%

Same assay, conditions: 1000 nM; 72 h

**Q.** For `Fc1ccc(CNc2ncnc3ccc(F)cc23)cc1` [Spautin 1], which cell viability is on record?
**A.** 25.9%

**Q.** `O=C(Oc1cccc(F)c1OC(=O)c1cccc(O)c1)c1cccc(O)c1` [WZB117] was tested. Which cell viability did it give?
**A.** 26.1%
